Test results: PubChem BioAssay AID504581 (National Center for Advancing Translational Sciences (NCATS), 2011)

Test system: PBS pH 7.4 stability, 37 C, LC-MS/MS, 48 h
Test: Inhibitors of 12-hLO: PBS Stability Profiling
Settings: at 2 µM; active compounds read high
Text: Assay Provider: Holman, T.R., University of California, Santa Cruz Grant #: MH08128301 Screening Center PI: Austin, C.P. Screening Center: NIH Chemical Genomics Center [NCGC] Human lipoxygenase 12hLO is a member of the closely related lipoxygenase family of enzymes which catalyze the site-specific oxidation of arachidonic acid to various hormone precursor molecules and as such is a candidate for drug development in a variety of disease areas, such as cancer and inflammation. After qHTS, hits were confirmed in follow-up assays, and leads were optimized through SAR. The resulting lead compound was further characterized through a battery ADME-Tox experiments, and this assay describes its stability in PBS buffer. The stability of the lead compound in PBS buffer is tested because this parameter has a significant impact on many ADME-concerned properties of drugs, such as uptake, distribution, transport, and eventually bioavailability.
2microM of compound is incubated in PBS buffer at pH 7; the reference compound is procaine. Compounds are incubated at 37 deg C for the pre-determined time periods and the when aliquots are removed. Samples are analyzed with LC-MS/MS.

SMILES: CC(=O)NC(c1cccs1)c1cc(Br)c2cccnc2c1O (stereo unspecified)
- percent remaining: 100%
